Assay results reported in US20260070927A1, “INDAZOLE MACROCYCLES FOR THE TREATMENT OF AUTOIMMUNE DISEASE” (Hoffmann-La Roche Inc., priority 2022, published 2026).

Experiments:
hERG channel = hERG channel (Homo sapiens (Human), UniProt Q12809); assay: hERG channel inhibition assay (patch-clamp, CHOhERG cells); assay type: cell-based; conditions: for IC20: human, CHO cells stably expressing hERG (CHOhERG)
Source text: The hERG K^+ channels were cloned in humans and stably expressed in a CHO (Chinese hamster ovary) cell line. CHOhERG cells (obtained from Roche Palo Alto LLC Cell Core Facilities) were used for patch-clamp (voltage-clamp, whole-cell) experiments. Cells were stimulated by a voltage pattern to activate hERG channels and conduct IKhERG currents (rapid delayed outward rectifier potassium current of the hERG channel). After the cells were stabilized in an internal solution that contains (in mM): KCl 10, KF 100, NaCl 10, HEPES 10, EGTA 20, pH=7.2 with KOH (osmolarity 260-300 mOsm) for a few minutes, the amplitude and kinetics of IKhERG were recorded at a stimulation frequency of 0.1 Hz (6 bpm). Thereafter, the test compound was dissolved in extracellular solution that contains (in mM): NaCl 150, KCl 4, CaCl2 1.2, MgCl2 1, HEPES 10, glucose 5, pH 7.2-7.4 with NaOH (osmolarity 290-330 mOsm), and was added to the preparation at increasing concentrations. For each concentration, an attempt was made to reach a steady-state effect, usually, this was achieved within 3-10 min at which time the next highest concentration was applied. The amplitude and kinetics of IKhERG are recorded in each concentration of the drug which were compared to the control values (taken as 100%).

[1] = target: human stimulator of interferon genes (STING) (139-379) (Homo sapiens (Human), UniProt Q86WV6); assay: Microliter plate-based TR-FRET competition-binding assay for binders of STING; conditions: Alexa488 probe, read-out: FRET_IC50
Outline: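 E. coli-expressed C-terminal flag-tagged STING (139-379) at 2.5 nM with 2.5 nM Tb-anti-Flag and 250 nM Alexa488-labelled active-site probe, 30 min at room temperature. TR-FRET 520/485 nm ratio after 320 nm excitation. Percent inhibition calculated relative to the 2′3′cGAMP positive control.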

STING (IFN-β in hPBMC) = assay: hPBMC cytokine functional assay (IFN-β decrease after Baculovirus stimulation); assay type: cell-based; conditions: Homo sapiens, Baculovirus MOI 40, 24 hours, read-out: hPBMC_IC50
Outline: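 Thawed hPBMC (70K cells/well) rested ≥3 h, then dosed with compound (final 0.5% DMSO) and infected with Baculovirus at MOI 40. Secreted IFN-β read by HTRF after 24 h at 37 °C. Cell viability checked in parallel by CellTiter-Glo.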

[2] = Metabolic (liver microsomal) stability assay; conditions: human liver microsomes, 1 μM test compound
Experimental: The liver microsomal stability assay is used for early assessment of metabolic stability of a test compound in liver microsomes.
Liver microsomes were preincubated with test compound for 10 minutes at 37° C. in 100 mM potassium phosphate buffer, pH 7.4. The reactions were initiated by adding NADPH regenerating system. The final incubation mixtures contained 1 μM test compound, 0.5 mg/mL liver microsomal protein, 1 mM MgCl2, 1 mM NADP, 1 unit/mL isocitric dehydrogenase and 6 mM isocitric acid in 100 mM potassium phosphate buffer, pH 7.4. After incubation times of 0, 3, 6, 9, 15 and 30 minutes at 37° C., 300 μL of cold acetonitrile (including internal standard) was added to 100 μL incubation mixture to terminate the reaction. Following precipitation and centrifugation, the amount of compound remaining in the samples were determined by LC-MS/MS. Controls of no NADPH regenerating system at zero and 30 minutes were also prepared and analyzed.

Chain of human stimulator of interferon genes (STING) (139-379) (Q86WV6 139-379): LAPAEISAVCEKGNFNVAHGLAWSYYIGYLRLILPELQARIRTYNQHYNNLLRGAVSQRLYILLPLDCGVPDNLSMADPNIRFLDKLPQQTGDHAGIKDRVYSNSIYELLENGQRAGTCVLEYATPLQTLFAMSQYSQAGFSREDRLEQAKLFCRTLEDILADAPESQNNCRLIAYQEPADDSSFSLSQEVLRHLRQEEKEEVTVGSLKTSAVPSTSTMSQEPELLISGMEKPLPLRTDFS
Chain of hERG channel (Q12809 whole entry): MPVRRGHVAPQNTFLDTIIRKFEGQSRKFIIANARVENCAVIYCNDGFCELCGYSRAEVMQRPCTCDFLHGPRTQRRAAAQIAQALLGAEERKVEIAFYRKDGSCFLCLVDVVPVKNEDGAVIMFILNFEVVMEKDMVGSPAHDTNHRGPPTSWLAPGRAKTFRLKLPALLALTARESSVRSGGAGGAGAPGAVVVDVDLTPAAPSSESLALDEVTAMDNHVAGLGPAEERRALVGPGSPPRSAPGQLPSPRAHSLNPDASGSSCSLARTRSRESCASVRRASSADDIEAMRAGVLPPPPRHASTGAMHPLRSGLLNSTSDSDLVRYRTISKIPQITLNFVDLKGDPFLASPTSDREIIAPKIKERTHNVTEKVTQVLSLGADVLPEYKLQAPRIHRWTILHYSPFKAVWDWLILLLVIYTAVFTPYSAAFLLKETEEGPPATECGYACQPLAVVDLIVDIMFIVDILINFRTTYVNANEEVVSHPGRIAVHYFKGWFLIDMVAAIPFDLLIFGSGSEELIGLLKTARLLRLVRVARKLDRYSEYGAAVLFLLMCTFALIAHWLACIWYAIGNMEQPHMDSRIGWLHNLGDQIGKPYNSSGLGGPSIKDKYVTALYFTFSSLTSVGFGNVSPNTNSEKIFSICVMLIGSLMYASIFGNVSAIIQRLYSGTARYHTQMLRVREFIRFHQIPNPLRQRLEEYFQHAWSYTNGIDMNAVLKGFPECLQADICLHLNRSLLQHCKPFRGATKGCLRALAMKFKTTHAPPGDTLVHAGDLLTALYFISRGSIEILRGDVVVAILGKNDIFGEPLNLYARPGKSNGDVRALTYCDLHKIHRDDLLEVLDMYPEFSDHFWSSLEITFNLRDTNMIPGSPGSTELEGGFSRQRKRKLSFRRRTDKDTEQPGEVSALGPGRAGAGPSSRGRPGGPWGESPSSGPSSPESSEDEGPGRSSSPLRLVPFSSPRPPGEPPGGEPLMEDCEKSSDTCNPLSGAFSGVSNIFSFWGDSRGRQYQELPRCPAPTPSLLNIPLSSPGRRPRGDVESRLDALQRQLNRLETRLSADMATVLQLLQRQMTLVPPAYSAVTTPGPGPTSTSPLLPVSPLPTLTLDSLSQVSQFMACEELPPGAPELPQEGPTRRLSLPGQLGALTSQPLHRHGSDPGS

SMILES | IC50 (hERG channel) [nM] | IC20 (hERG channel) [nM] | IC50 [1] [nM] | IC50 (STING (IFN-β in hPBMC)) [nM] | Clearance of human microsome [2] [mL/min/kg]
CN1CCCc2c3c(cccc3nn2C)-c2cccc(n2)O[C@H]2C[C@@H](C1=O)N(c1ncnc3c1cnn3-c1ccc(F)cc1F)C2 [Example 9, (8S,11S)-10-[1-(2,4-difluorophenyl)pyrazolo[3,4-d]pyrimidin-4-yl]-13,18-dimethyl-7-oxa-10,13,18,19,26-pentazapentacyclo[15.6.1.1^2,6.1^8,11.0^20,24]hexacosa-1(23),2(26),3,5,17(24),19,21-heptaen-12-one] | > 20000 | > 10000 | 17.8 | 1580 | 11.6
Cn1nc2cccc3c2c1CCCNC(=O)[C@@H]1C[C@@H](CN1c1ncnc2c1cnn2-c1ccc(F)cc1F)Oc1ccnc-3c1 [Example 10, (8S,11S)-10-[1-(2,4-difluorophenyl)pyrazolo[3,4-d]pyrimidin-4-yl]-18-methyl-7-oxa-3,10,13,18,19-pentazapentacyclo[15.6.1.1^2,6.1^8,11.0^20,24]hexacosa-1(23),2(26),3,5,17(24),19,21-heptaen-12-one] | > 10000 | 8200 | 5.1 | – | 8.3
CN(C)CCN1CCCc2c3c(cccc3nn2C)-c2cccc(c2)O[C@H]2C[C@@H](C1=O)N(c1ncnc3c1cnn3-c1ccc(F)cc1F)C2 [Example 24, (8S,11S)-10-[1-(2,4-difluorophenyl)pyrazolo[3,4-d]pyrimidin-4-yl]-13-[2-(dimethylamino)ethyl]-18-methyl-7-oxa-10,13,18,19-tetrazapentacyclo[15.6.1.1^2,6.1^8,11.0^20,24]hexacosa-1(23),2(26),3,5,17(24),19,21-heptaen-12-one] | – | – | 8.2 | 711 | 14.9
Cn1nc2cccc3c2c1CCCN(CCCN1CC2(COC2)C1)C(=O)[C@@H]1C[C@@H](CN1c1ncnc2c1cnn2-c1ccc(F)cc1F)Oc1cccc-3c1 [Example 31, (8S,11S)-10-[1-(2,4-difluorophenyl)pyrazolo[3,4-d]pyrimidin-4-yl]-18-methyl-13-[3-(2-oxa-6-azaspiro[3.3]heptan-6-yl)propyl]-7-oxa-10,13,18,19-tetrazapentacyclo[15.6.1.1^2,6.1^8,11.0^20,24]hexacosa-1(23),2(26),3,5,17(24),19,21-heptaen-12-one] | – | – | 7.2 | 517 | 12.4
CN1CCN(CCCN2CCCc3c4c(cccc4nn3C)-c3cccc(c3)O[C@H]3C[C@@H](C2=O)N(c2ncnc4c2cnn4-c2ccc(F)cc2F)C3)CC1 [Example 32, (8S,11S)-10-[1-(2,4-difluorophenyl)pyrazolo[3,4-d]pyrimidin-4-yl]-18-methyl-13-[3-(4-methylpiperazin-1-yl)propyl]-7-oxa-10,13,18,19-tetrazapentacyclo[15.6.1.1^2,6.1^8,11.0^20,24]hexacosa-1(23),2(26),3,5,17(24),19,21-heptaen-12-one] | – | – | 3.2 | 1100 | 11.5
CN1CC2CC1CN2CCCN1CCCc2c3c(cccc3nn2C)-c2cccc(c2)O[C@H]2C[C@@H](C1=O)N(c1ncnc3c1cnn3-c1ccc(F)cc1F)C2 [Example 34, (8S,11S)-10-[1-(2,4-difluorophenyl)pyrazolo[3,4-d]pyrimidin-4-yl]-18-methyl-13-[3-(5-methyl-2,5-diazabicyclo[2.2.1]heptan-2-yl)propyl]-7-oxa-10,13,18,19-tetrazapentacyclo[15.6.1.1^2,6.1^8,11.0^20,24]hexacosa-1(23),2(26),3,5,17(24),19,21-heptaen-12-one] | – | – | 7 | 2490 | 6.1
Cn1nc2cccc3c2c1CCCN(CCCn1cnnn1)C(=O)[C@@H]1C[C@@H](CN1c1ncnc2c1cnn2-c1ccc(F)cc1F)Oc1cccc-3c1 [Example 36, (8S,11S)-10-[1-(2,4-difluorophenyl)pyrazolo[3,4-d]pyrimidin-4-yl]-18-methyl-13-[3-(tetrazol-1-yl)propyl]-7-oxa-10,13,18,19-tetrazapentacyclo[15.6.1.1^2,6.1^8,11.0^20,24]hexacosa-1(23),2(26),3,5,17(24),19,21-heptaen-12-one] | – | – | 1.3 | 1570 | 11.9
Cn1nc2cccc3c2c1CCCN(CCC(C)(C)O)C(=O)[C@@H]1C[C@@H](CN1c1ncnc2c1cnn2-c1ccc(F)cc1F)Oc1cccc-3c1 [Example 40, (8S,11S)-10-[1-(2,4-difluorophenyl)pyrazolo[3,4-d]pyrimidin-4-yl]-13-(3-hydroxy-3-methyl-butyl)-18-methyl-7-oxa-10,13,18,19-tetrazapentacyclo[15.6.1.1^2,6.1^8,11.0^20,24]hexacosa-1(23),2(26),3,5,17(24),19,21-heptaen-12-one] | – | – | 8.6 | 708 | 15.6
COc1cc(F)ccc1-n1ncc2c(N3C[C@@H]4C[C@H]3C(=O)N(CCCN3CCOCC3)CCCc3c5c(cccc5nn3C)-c3cccc(n3)N4)ncnc21 [Example 43, (8S,11S)-10-[1-(4-fluoro-2-methoxy-phenyl)pyrazolo[3,4-d]pyrimidin-4-yl]-18-methyl-13-(3-morpholinopropyl)-7,10,13,18,19,26-hexazapentacyclo[15.6.1.1^2,6.1^8,11.0^20,24]hexacosa-1(23),2(26),3,5,17(24),19,21-heptaen-12-one] | > 20000 | > 10000 | 3.5 | 292 | 12.0
Cn1nc2c(F)ccc3c2c1CCCN(CCCN1CCOCC1)C(=O)[C@@H]1C[C@@H](CN1c1ncnc2c1cnn2-c1ccc(F)cc1F)Nc1cccc-3n1 [Example 44, (8S,11S)-10-[1-(2,4-difluorophenyl)pyrazolo[3,4-d]pyrimidin-4-yl]-21-fluoro-18-methyl-13-(3-morpholinopropyl)-7,10,13,18,19,26-hexazapentacyclo[15.6.1.1^2,6.1^8,11.0^20,24]hexacosa-1(23),2(26),3,5,17(24),19,21-heptaen-12-one] | – | – | 6.3 | 321 | 15.8
COc1cc(F)ccc1-n1ncc2c(N3C[C@@H]4C[C@H]3C(=O)N(CCCN3CCOCC3)CCCc3c5c(ccc(F)c5nn3C)-c3cccc(n3)N4)ncnc21 [Example 45, (8S,11S)-21-fluoro-10-[1-(4-fluoro-2-methoxy-phenyl)pyrazolo[3,4-d]pyrimidin-4-yl]-18-methyl-13-(3-morpholinopropyl)-7,10,13,18,19,26-hexazapentacyclo[15.6.1.1^2,6.1^8,11.0^20,24]hexacosa-1(23),2(26),3,5,17(24),19,21-heptaen-12-one] | – | – | 3.9 | 569 | 15.9
